Experimental findings from PMC3934385, “Componential Profile and Amylase Inhibiting Activity of Phenolic Compounds from Calendula officinalis L. Leaves” (The Scientific World Journal, 2014) are described below.

In brackets after ≈: the same amount, converted by molar mass.

For the experiment, the target named is T1, amylase from Aspergillus niger.
T1 construct: gene aamA
Nature of the experiment: starch hydrolysis, glucose oxidase/peroxidase coupled, A510 microplate. Conditions: 2% starch, phosphate pH 5.0, preincubation 20 min 45°C, then 30 min 50°C. It is filed as biochemical. From the text: starch hydrolysis, glucose oxidase/peroxidase coupled, A510 microplate on amylase from Aspergillus niger
As usually defined, the IC50 is the midpoint of a concentration-inhibition curve. As for `COc1cc(-c2oc3cc(O)cc(O)c3c(=O)c2O)ccc1O` [compound 21, isorhamnetin], the “IC50” value is 2.64 µg/mL (≈ 8.35 µM). Same read-out and setting: next, `O=c1ccc2cc(O)c(O[C@@H]3O[C@H](CO)[C@@H](O)[C@H](O)[C@H]3O)cc2o1` [compound 15, cichoriin]: greater than 100 µg/mL; `O=C(/C=C/c1ccc(O)c(O)c1)O[C@@H]1C[C@](OC(=O)/C=C/c2ccc(O)c(O)c2)(C(=O)O)C[C@@H](O)[C@H]1O` [compound 10, 1,5-di-O-caffeoylquinic acid]: 37.15 µg/mL (≈ 71.9 µM); `COc1cc(-c2oc3cc(O)cc(O)c3c(=O)c2O[C@@H]2O[C@H](CO[C@@H]3O[C@@H](C)[C@H](O)[C@@H](O)[C@H]3O)[C@@H](O)[C@H](O)[C@H]2O[C@@H]2O[C@@H](C)[C@H](O)[C@@H](O)[C@H]2O)ccc1O` [compound 25, thyphaneoside]: greater than 100 µg/mL. In the case of `COc1cc2ccc(=O)oc2cc1O` [compound 16, scopoletin], the “IC50 (μg mL^-1)” value is on record as ~ 100 μg mL^−1.

For the molecule `C[C@H]1O[C@H](O[C@H]2[C@H](O)[C@@H](O)[C@@H](O[C@H]3[C@H](O)[C@@H](O)C(O)O[C@@H]3CO)O[C@@H]2CO)[C@H](O)[C@@H](O)[C@@H]1N[C@H]1C=C(CO)[C@@H](O)[C@H](O)[C@H]1O` (stereo partly shown) [Acarbose, reference compound], the “IC50” value was 9.54 ± 0.32 µg/mL (≈ 14.8 µM). For `O=C(OC[C@H]1OC(O)[C@H](O)[C@@H](O)[C@@H]1O)c1ccc(O)c(O)c1` (stereo partly drawn) [compound 4, 6′-O-protocatechuoyl-β-D-glucopyranose], the “IC50” value stood at 66.52 µg/mL (≈ 210 µM).

`O=c1ccc2ccc(O)cc2o1` [compound 12, umbelliferone]: the “IC50” value was greater than 100 µg/mL. In the case of `O=C(OC[C@H]1OC(O)[C@H](O)[C@@H](O)[C@@H]1O)c1ccc(O)cc1` (stereo partly drawn) [compound 2, 6′-O-p-hydroxybenzoyl-β-D-glucopyranose], the “IC50” value was greater than 100 µg/mL. Turning to `C[C@@H]1O[C@@H](OC[C@H]2O[C@@H](Oc3c(-c4ccc(O)c(O)c4)oc4cc(O)cc(O)c4c3=O)[C@H](O)[C@@H](O)[C@@H]2O)[C@H](O)[C@H](O)[C@H]1O` [compound 20, rutin], the “IC50” value was 89.85 µg/mL (≈ 147 µM). Still for that read-out and setting: next, `COc1cc(-c2oc3cc(O)cc(O)c3c(=O)c2O[C@@H]2O[C@H](CO)[C@@H](O)[C@H](O)[C@H]2O)ccc1O` [compound 22, isorhamnetin-3-O-β-D-glucopyranoside]: 23.41 µg/mL (≈ 48.9 µM); `CC(=O)OC[C@H]1O[C@@H](Oc2c(-c3ccc(O)c(O)c3)oc3cc(O)cc(O)c3c2=O)[C@H](O)[C@@H](O)[C@@H]1O` [compound 19, quercetin-3-O-(6′′-acetyl)-β-D-glucopyranoside]: 32.70 µg/mL (≈ 64.6 µM); `COc1cc(C(=O)O[C@@H]2O[C@H](CO)[C@@H](O)[C@H](O)[C@H]2O)ccc1O` [compound 5, 1′-O-vanilloyl-β-D-glucopyranose]: 73.69 µg/mL (≈ 223 µM). With `COc1cc(-c2oc3cc(O)cc(O)c3c(=O)c2O[C@@H]2O[C@H](COC(C)=O)[C@@H](O)[C@H](O)[C@H]2O)ccc1O` [compound 23, isorhamnetin-3-O-(6′′-acetyl)-β-D-glucopyranoside], the “IC50 (μg mL^-1)” value is listed as ~ 100 μg mL^−1. With `COc1cc(C(=O)OC[C@H]2OC(O)[C@H](O)[C@@H](O)[C@@H]2O)ccc1O` (mixture of isomers) [compound 6, 6′-O-vanilloyl-β-D-glucopyranose], the “IC50” value was found to be 79.18 µg/mL. The same measure, in the same setting: next, `O=c1ccc2cc(O)c(O)cc2o1` [compound 13, aesculetin]: 1.02 µg/mL (≈ 5.73 µM); `O=c1c(O[C@@H]2O[C@H](CO)[C@@H](O)[C@H](O)[C@H]2O)c(-c2ccc(O)c(O)c2)oc2cc(O)cc(O)c12` [compound 18, isoquercitrin]: 15.45 µg/mL (≈ 33.3 µM).

Consider `O=c1c(O)c(-c2ccc(O)c(O)c2)oc2cc(O)cc(O)c12` [compound 17, quercetin], for which the concentration for half-maximal inhibition (IC50) was 1.79 µg/mL (≈ 5.92 µM). Still for that read-out and setting: the figure for `O=C(/C=C/c1ccc(O)c(O)c1)O[C@@H]1C[C@](O)(C(=O)O)C[C@@H](OC(=O)/C=C/c2ccc(O)c(O)c2)[C@H]1O` [compound 9, 3,5-di-O-caffeoylquinic acid] is 25.63 µg/mL (≈ 49.6 µM); for `O=C(/C=C/c1ccc(O)c(O)c1)O[C@@H]1[C@H](O)C[C@@](O)(C(=O)O)C[C@H]1OC(=O)/C=C/c1ccc(O)c(O)c1` [compound 11, 4,5-di-O-caffeoylquinic acid] it is 26.65 µg/mL (≈ 51.6 µM).

Take `O=C(O)/C=C/c1ccc(O)c(O)c1` [compound 7, caffeic acid]: the “IC50” value was determined as 2.53 µg/mL (≈ 14 µM). On to `O=C(O[C@@H]1O[C@H](CO)[C@@H](O)[C@H](O)[C@H]1O)c1ccc(O)cc1` [compound 1, 1′-O-p-hydroxybenzoyl-β-D-glucopyranose], for which the “IC50” value was greater than 100 µg/mL. `O=C(O[C@@H]1O[C@H](CO)[C@@H](O)[C@H](O)[C@H]1O)c1ccc(O)c(O)c1` [compound 3, 1′-O-protocatechuoyl-β-D-glucopyranose]: the “IC50” value was 62.46 µg/mL (≈ 197 µM). Turning to `O=c1ccc2cc(O[C@@H]3O[C@H](CO)[C@@H](O)[C@H](O)[C@H]3O)c(O)cc2o1` [compound 14, aesculin], the “IC50” value is greater than 100 µg/mL. Regarding `COc1cc(-c2oc3cc(O)cc(O)c3c(=O)c2O[C@@H]2O[C@H](CO[C@@H]3O[C@@H](C)[C@H](O)[C@@H](O)[C@H]3O)[C@@H](O)[C@H](O)[C@H]2O)ccc1O` [compound 24, narcissin], the “IC50” value was greater than 100 µg/mL.
